Assay results as given in ChEMBL document CHEMBL5223101, “Evolution of 3-(4-hydroxyphenyl)indoline-2-one as a scaffold for potent and selective anticancer activity” (RSC Med Chem, 2022).

Test: Anticancer activity against human ECC-1 cells assessed as cell death at 1 uM by tryphan blue staining based cell counter analysis relative to control

## Cc1cccc2c1NC(=O)C2(c1ccc(O)cc1)c1ccc(O)cc1
  cell death at 1 µM: < 20%
